Source: patent publication US20230219904A1 (SYNGENTA CROP PROTECTION AG, priority 2020, published 2023)

What was measured:
Assay type in all cases: in vivo
[1] = system: Ipomoea hederacea (IPOHE); experiment: Post-emergence herbicidal glasshouse test (Table B1); details: evaluated after 13 days
Description: (§1) Seeds of a variety of test species are sown in standard soil in pots (Lolium perenne (LOLPE), Amaranthus retoflexus (AMARE), Abutilon theophrasti (ABUTH), Setaria faberi (SETFA), Echinochloa crus-galh (ECHCG), Ipomoea hederacea (IPOHE)). After cultivation for one day (pre-emergence) or after 8 days cultivation (post-emergence) under controlled conditions in a glasshouse (at 24/16° C., day/night; 14 hours light; 65% humidity), the plants are sprayed with an aqueous spray solution derived from the formulation of the technical active ingredient in acetone/water (50:50) solution containing 0.5% Tween 20 (polyoxyethelyene sorbitan monolaurate, CAS RN 9005-64-5). Compounds are applied at 500 g/h unless otherwise indicated. The test plants are then grown in a glasshouse under controlled conditions in a glasshouse (at 24/16° C., day/night; 14 hours light; 65% humidity) and watered twice daily. After 13 days for pre and post-emergence, the test is evaluated for the percentage damage caused to the plant. The biological activities are shown in the following table on a five-point scale (5=80-100%; 4=60-79%; 3=40-59%; 2=20-39%; 1=0-19%).

[2] = system: Setaria faberi (SETFA); experiment: as above; details: evaluated after 13 days
Description: as §1

[3] = system: Echinochloa crus-galh (ECHCG); experiment: as above; details: applied at 125 g/ha, evaluated after 13 days
Description: as §1

[4] = system: Amaranthus retoflexus (AMARE); experiment: as above; details: evaluated after 13 days
Description: as §1

[5] = system: Ipomoea hederacea (IPOHE); experiment: Pre-emergence herbicidal glasshouse test (Table B1); details: evaluated after 13 days
Description: as §1

[6] = system: Setaria faberi (SETFA); experiment: as above; details: evaluated after 13 days
Description: as §1

[7] = system: Echinochloa crus-galh (ECHCG); experiment: as above; details: evaluated after 13 days
Description: as §1

[8] = system: Abutilon theophrasti (ABUTH); experiment: as above; details: evaluated after 13 days
Description: as §1

[9] = system: Amaranthus retoflexus (AMARE); experiment: as above; details: evaluated after 13 days
Description: as §1

Row | Compound | POST Application IPOHE, percentage damage on five-point scale ([1]; applied at 125 g/ha) | POST Application SETFA, percentage damage on five-point scale ([2]; applied at 125 g/ha) | POST Application ECHCG, percentage damage on five-point scale [3] | POST Application AMARE, percentage damage on five-point scale ([4]; applied at 125 g/ha) | PRE Application IPOHE, percentage damage on five-point scale ([5]; applied at 125 g/ha) | PRE Application SETFA, percentage damage on five-point scale ([6]; applied at 125 g/ha) | PRE Application ECHCG, percentage damage on five-point scale ([7]; applied at 125 g/ha) | PRE Application ABUTH, percentage damage on five-point scale ([8]; applied at 125 g/ha) | PRE Application AMARE, percentage damage on five-point scale ([9]; applied at 125 g/ha) | POST Application IPOHE, percentage damage on five-point scale ([1]; applied at 500 g/h) | POST Application SETFA, percentage damage on five-point scale ([2]; applied at 500 g/h) | POST Application AMARE, percentage damage on five-point scale ([4]; applied at 500 g/h) | PRE Application IPOHE, percentage damage on five-point scale ([5]; applied) | PRE Application SETFA, percentage damage on five-point scale ([6]; applied at 500 g/h) | PRE Application ECHCG, percentage damage on five-point scale ([7]; applied at 500 g/h) | PRE Application ABUTH, percentage damage on five-point scale ([8]; applied at 500 g/h) | PRE Application AMARE, percentage damage on five-point scale ([9]; applied at 500 g/h)
1 | CCn1nnnc1NC(=O)c1ccc(OC(F)(F)F)c(NC(=O)CCCOC)c1Cl [Compound 1.067] | 4 (4=60-79%) | 5 (5=80-100%) | 5 (5=80-100%) | 5 (5=80-100%) | 5 (5=80-100%) | 5 (5=80-100%) | 5 (5=80-100%) | 5 (5=80-100%) | 5 (5=80-100%) | – | – | – | – | – | – | – | –
2 | CCC(=O)N(CC)c1c(OC(F)F)ccc(C(=O)Nc2nnnn2CC)c1Cl [Compound 1.095] | 4 (4=60-79%) | 5 (5=80-100%) | 5 (5=80-100%) | 5 (5=80-100%) | 4 (4=60-79%) | 4 (4=60-79%) | 5 (5=80-100%) | 5 (5=80-100%) | 5 (5=80-100%) | – | – | – | – | – | – | – | –
3 | CC(C)OCC(=O)Nc1c(OC(F)(F)F)ccc(C(=O)Nc2nnnn2C)c1Cl [Compound 1.064] | 4 (4=60-79%) | 4 (4=60-79%) | – | 4 (4=60-79%) | 4 (4=60-79%) | 4 (4=60-79%) | 3 (3=40-59%) | 5 (5=80-100%) | 5 (5=80-100%) | – | – | – | – | – | – | – | –
4 | CCn1nnnc1NC(=O)c1ccc(OC(F)(F)F)c(NC(=O)COC(C)C)c1Cl [Compound 1.072] | 4 (4=60-79%) | 5 (5=80-100%) | 5 (5=80-100%) | 4 (4=60-79%) | 5 (5=80-100%) | 4 (4=60-79%) | 5 (5=80-100%) | 5 (5=80-100%) | 5 (5=80-100%) | – | – | – | – | – | – | – | –
5 | Cc1nc(C)c(C(=O)Nc2c(OC(F)F)ccc(C(=O)Nc3nnnn3C)c2Cl)s1 [Compound 1.042] | 5 (5=80-100%) | 5 (5=80-100%) | 5 (5=80-100%) | 5 (5=80-100%) | 5 (5=80-100%) | 5 (5=80-100%) | 5 (5=80-100%) | 4 (4=60-79%) | 5 (5=80-100%) | – | – | – | – | – | – | – | –
6 | CCC(=O)Nc1c(OC(F)(F)C(F)F)ccc(C(=O)Nc2nnnn2C)c1Cl [Compound 1.109] | – | – | – | – | – | – | – | – | – | 5 (5=80-100%) | 5 (5=80-100%) | 5 (5=80-100%) | 5 (5=80-100%) | 4 (4=60-79%) | 4 (4=60-79%) | 5 (5=80-100%) | 5 (5=80-100%)
7 | COc1ccccc1C(=O)Nc1c(OC(F)(F)F)ccc(C(=O)Nc2nnnn2C)c1Cl [Compound 1.056] | 4 (4=60-79%) | 4 (4=60-79%) | 4 (4=60-79%) | 4 (4=60-79%) | – | 3 (3=40-59%) | 1 (1=0-19%) | 5 (5=80-100%) | 3 (3=40-59%) | – | – | – | – | – | – | – | –
8 | CCn1nnnc1NC(=O)c1ccc(OC(F)(F)F)c(NC(=O)CC(F)(F)F)c1Cl [Compound 1.068] | 4 (4=60-79%) | 5 (5=80-100%) | – | 4 (4=60-79%) | 3 (3=40-59%) | 5 (5=80-100%) | 5 (5=80-100%) | 5 (5=80-100%) | 5 (5=80-100%) | – | – | – | – | – | – | – | –
9 | Cn1nnnc1NC(=O)c1ccc(OC(F)F)c(NC(=O)c2ncccc2Cl)c1Cl [Compound 1.092] | 4 (4=60-79%) | 4 (4=60-79%) | – | 3 (3=40-59%) | 3 (3=40-59%) | 5 (5=80-100%) | – | 5 (5=80-100%) | 5 (5=80-100%) | – | – | – | – | – | – | – | –
10 | Cn1nnnc1NC(=O)c1ccc(OC(F)F)c(NC(=O)c2cc(Cl)sc2Cl)c1Cl [Compound 1.041] | 3 (3=40-59%) | 3 (3=40-59%) | – | 3 (3=40-59%) | 2 (2=20-39%) | 2 (2=20-39%) | 3 (3=40-59%) | 5 (5=80-100%) | 2 (2=20-39%) | – | – | – | – | – | – | – | –
11 | CCn1nnnc1NC(=O)c1ccc(OC(F)F)c(NC(=O)c2cc(OC)ccn2)c1Cl [Compound 1.080] | 4 (4=60-79%) | 4 (4=60-79%) | – | 4 (4=60-79%) | 2 (2=20-39%) | 1 (1=0-19%) | 1 (1=0-19%) | 1 (1=0-19%) | 4 (4=60-79%) | – | – | – | – | – | – | – | –
12 | Cc1nc(C(=O)Nc2c(OC(F)F)ccc(C(=O)Nc3nnnn3C)c2Cl)cs1 [Compound 1.038] | 4 (4=60-79%) | 4 (4=60-79%) | – | 4 (4=60-79%) | 5 (5=80-100%) | 4 (4=60-79%) | 5 (5=80-100%) | 5 (5=80-100%) | 5 (5=80-100%) | – | – | – | – | – | – | – | –
13 | Cn1nnnc1NC(=O)c1ccc(OC(F)(F)F)c(NC(=O)C(C)(F)F)c1Cl [Compound 1.061] | 4 (4=60-79%) | 5 (5=80-100%) | 4 (4=60-79%) | 5 (5=80-100%) | 3 (3=40-59%) | 3 (3=40-59%) | 3 (3=40-59%) | – | 5 (5=80-100%) | – | – | – | – | – | – | – | –
14 | CCOCC(=O)Nc1c(OC(F)(F)F)ccc(C(=O)Nc2nnnn2C)c1Cl [Compound 1.066] | 4 (4=60-79%) | 4 (4=60-79%) | – | 4 (4=60-79%) | 5 (5=80-100%) | 4 (4=60-79%) | 5 (5=80-100%) | 5 (5=80-100%) | 5 (5=80-100%) | – | – | – | – | – | – | – | –
15 | CCCOCC(=O)Nc1c(OC(F)(F)F)ccc(C(=O)Nc2nnnn2C)c1Cl [Compound 1.062] | 4 (4=60-79%) | 5 (5=80-100%) | 4 (4=60-79%) | 5 (5=80-100%) | 4 (4=60-79%) | 3 (3=40-59%) | 2 (2=20-39%) | – | 5 (5=80-100%) | – | – | – | – | – | – | – | –
